# Reference: patent US20260042755A1, “GPR6 INVERSE AGONISTS” (MapLight Therapeutics, Inc., priority 2022, published 2026)
# Experiments:
# GPR6 = target: T1, GPR6 (Homo sapiens, UniProt P46095); test: GPR6 antagonist functional cAMP assay (LANCE Ultra cAMP TR-FRET, CHO cells stably expressing GPR6); assay type: cell-based
# T1 construct: expressed in transfected cells; host or cells: CHO cells
# Description: (§1) Example 56. GPR6 and GPR3 Antagonist Functional cAMP Assay
# (§2) CHO cells stably expressing GPR6 or GPR3 receptors were dissociated from cell culture flasks and incubated for 2 h at 37° C. in a 10 cm dish in a humidified incubator. Cells were dissociated, counted to have 1e6 cells/mL (4.5e6 cells needed/384-well plate), washed once in starved media, than in D-PBS and finally suspended in assay buffer (Krebs-Ringer Bicarbonate Buffer with 1800 mg/L glucose, without calcium chloride and sodium bicarbonate (Sigma) in the presence of 0.1% BSA and 150 μM of Ro 20-1724 Phosphodiesterase inhibitor).
# (§3) Cells in suspension from above were plated in 384-well white Optiplate (PerkinElmer) at 10,000 cells/well/10 μl, briefly centrifuged prior direct addition of compounds ([…]) in 10 mM DMSO using a Tecan D300e Digital Dispenser, final DMSO in each well was normalized to 0.1%. Cells were incubated in the presence of compounds for 45 min at 37° C. in a humidified incubator.
# (§4) To measure cAMP levels, LANCE® Ultra cAMP assay (Perkin Elmer), a homogeneous time-resolved fluorescence resonance energy transfer (TR-FRET) immunoassay was used following manufacturer's recommendations. Plates were shaken for 1 h at room temperature before reading on a Tecan InfiniteF200Pro multi-mode plate reader using standard FRET settings (Excitation 340 nm, Emission at 615 nm). FRET values were reported as readings obtained at 665 nm. Data were normalized to DMSO (0.1%) and reference compounds (100%) and fit to a 4-parameter logistical fit to generate antagonist IC50s.
# GPR3 = target: T2, GPR3 (Homo sapiens, UniProt P46089); test: GPR3 antagonist functional cAMP assay (LANCE Ultra cAMP TR-FRET, CHO cells stably expressing GPR3); assay type: cell-based
# T2 construct: expressed in transfected cells; host or cells: CHO cells
# Description: as §1, §2, §3, §4
# [1] = CHO cells stably expressing GPR6, cAMP assay
# [2] = CHO cells stably expressing GPR3, cAMP assay
# T1 sequence (P46095 whole entry): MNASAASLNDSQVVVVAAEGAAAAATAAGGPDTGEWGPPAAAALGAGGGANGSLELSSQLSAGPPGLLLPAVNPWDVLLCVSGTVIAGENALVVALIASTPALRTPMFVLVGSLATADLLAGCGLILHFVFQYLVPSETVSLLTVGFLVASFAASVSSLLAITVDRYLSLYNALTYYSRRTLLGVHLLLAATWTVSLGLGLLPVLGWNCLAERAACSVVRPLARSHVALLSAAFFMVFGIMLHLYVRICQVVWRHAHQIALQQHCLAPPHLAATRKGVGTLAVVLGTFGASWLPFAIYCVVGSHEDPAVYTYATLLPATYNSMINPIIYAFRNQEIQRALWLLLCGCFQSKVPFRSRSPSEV
# T2 sequence (P46089 whole entry, species assumed): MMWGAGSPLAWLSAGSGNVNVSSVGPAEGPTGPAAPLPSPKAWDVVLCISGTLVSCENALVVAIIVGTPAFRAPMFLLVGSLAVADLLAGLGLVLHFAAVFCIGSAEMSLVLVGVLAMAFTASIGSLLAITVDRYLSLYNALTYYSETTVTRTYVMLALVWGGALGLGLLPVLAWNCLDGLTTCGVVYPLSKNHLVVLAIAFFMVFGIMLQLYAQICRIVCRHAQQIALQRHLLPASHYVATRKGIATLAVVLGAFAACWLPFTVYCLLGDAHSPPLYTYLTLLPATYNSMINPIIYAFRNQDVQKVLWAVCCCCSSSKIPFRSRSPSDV
smiles,measurement,setting,value
"CC(C)(O)C(O)c1cc2nc(-c3cnn(CF)c3)c(N3CCN(Cc4ccc(F)cc4F)CC3)nc2cn1 (single isomer, unassigned) [Compound 602]",IC50,GPR6; [1],100 to 1000 nM
same,IC50,GPR3; [2],100 to 1000 nM
"CC(C)(O)C(O)c1cc2nc(-c3cnn(CF)c3)c(N3CCN(Cc4ccc(F)cc4F)CC3)nc2cn1 (single isomer, unassigned) [Compound 603]",IC50,GPR6; [1],< 100 nM
same,IC50,GPR3; [2],1000 to 30000 nM
"CC(C)(O)[C@H](O)c1cc2nc(N3CCN(Cc4ccccc4F)CC3)c(-c3cnn(C(F)F)c3)nc2cn1 (single isomer, unassigned) [Compound 612]",IC50,GPR6; procedure of Example 24,100 to 1000 nM
same,IC50,GPR3; procedure of Example 24,1000 to 30000 nM
"CC(C)(O)[C@@H](O)c1cc2nc(N3CCN(Cc4ccccc4F)CC3)c(-c3cnn(C(F)F)c3)nc2cn1 (single isomer, unassigned) [Compound 613]",IC50,GPR6; procedure of Example 24,100 to 1000 nM
same,IC50,GPR3; procedure of Example 24,1000 to 30000 nM
"COC[C@](C)(O)c1cc2nc(N3CCC(Oc4ccc(F)cc4F)CC3)c(-c3cnn(C)c3)nc2cn1 (single isomer, unassigned) [Compound 614]",IC50,GPR6; procedure of Example 24,100 to 1000 nM
same,IC50,GPR3; procedure of Example 24,1000 to 30000 nM
"COC[C@@](C)(O)c1cc2nc(N3CCC(Oc4ccc(F)cc4F)CC3)c(-c3cnn(C)c3)nc2cn1 (single isomer, unassigned) [Compound 615]",IC50,GPR6; procedure of Example 24,100 to 1000 nM
same,IC50,GPR3; procedure of Example 24,1000 to 30000 nM
"CO[C@@H](CO)c1cc2nc(N3CCC(Oc4ccc(F)cc4F)CC3)c(-c3cnn(C)c3)nc2cn1 (single isomer, unassigned) [Compound 640]",IC50,GPR6; procedure of Example 24,100 to 1000 nM
same,IC50,GPR3; procedure of Example 24,1000 to 30000 nM
"CO[C@H](CO)c1cc2nc(N3CCC(Oc4ccc(F)cc4F)CC3)c(-c3cnn(C)c3)nc2cn1 (single isomer, unassigned) [Compound 641]",IC50,GPR6; procedure of Example 24,100 to 1000 nM
same,IC50,GPR3; procedure of Example 24,1000 to 30000 nM
"COC[C@@H](O)c1cc2nc(N3CCC(Oc4ccc(F)cc4F)CC3)c(-c3cnn(C)c3)nc2cn1 (single isomer, unassigned) [Compound 642]",IC50,GPR6; procedure of Example 24,100 to 1000 nM
same,IC50,GPR3; procedure of Example 24,1000 to 30000 nM
"COC[C@H](O)c1cc2nc(N3CCC(Oc4ccc(F)cc4F)CC3)c(-c3cnn(C)c3)nc2cn1 (single isomer, unassigned) [Compound 643]",IC50,GPR6; procedure of Example 24,< 100 nM
same,IC50,GPR3; procedure of Example 24,1000 to 30000 nM
"CC(C)(O)[C@@H](O)c1cc2nc(N3CCN(Cc4ccccc4F)CC3)c(-c3cnn(CF)c3)nc2cn1 (single isomer, unassigned) [Compound 647]",IC50,GPR6; procedure of Example 24,< 100 nM
same,IC50,GPR3; procedure of Example 24,1000 to 30000 nM
"CC(C)(O)[C@H](O)c1cc2nc(N3CCN(Cc4ccccc4F)CC3)c(-c3cnn(CF)c3)nc2cn1 (single isomer, unassigned) [Compound 648]",IC50,GPR6; procedure of Example 24,100 to 1000 nM
same,IC50,GPR3; procedure of Example 24,1000 to 30000 nM
"CC(C)(O)[C@](C)(O)c1cc2nc(N3CCN(Cc4ccc(F)cc4F)CC3)c(-c3cnn(CF)c3)nc2cn1 (single isomer, unassigned) [Compound 649]",IC50,GPR6; procedure of Example 24,100 to 1000 nM
same,IC50,GPR3; procedure of Example 24,1000 to 30000 nM
"CC(C)(O)[C@@](C)(O)c1cc2nc(N3CCN(Cc4ccc(F)cc4F)CC3)c(-c3cnn(CF)c3)nc2cn1 (single isomer, unassigned) [Compound 650]",IC50,GPR6; procedure of Example 24,100 to 1000 nM
same,IC50,GPR3; procedure of Example 24,1000 to 30000 nM
"CC(C)(O)[C@](C)(O)c1cc2nc(N3CCC(Oc4ccc(F)cc4F)CC3)c(-c3cnn(C(F)F)c3)nc2cn1 (single isomer, unassigned) [Compound 655]",IC50,GPR6; procedure of Example 24,100 to 1000 nM
same,IC50,GPR3; procedure of Example 24,1000 to 30000 nM
"CC(C)(O)[C@@](C)(O)c1cc2nc(N3CCC(Oc4ccc(F)cc4F)CC3)c(-c3cnn(C(F)F)c3)nc2cn1 (single isomer, unassigned) [Compound 656]",IC50,GPR6; procedure of Example 24,100 to 1000 nM
same,IC50,GPR3; procedure of Example 24,1000 to 30000 nM
"CC(=O)N1CCc2nc(N3CCC([C@H](F)c4ccc(F)cc4F)CC3)c(-c3cnn(C)c3)nc2C1 (single isomer, unassigned) [Compound 658]",IC50,GPR6; procedure of Example 24,< 100 nM
same,IC50,GPR3; procedure of Example 24,100 to 1000 nM
"CC(=O)N1CCc2nc(N3CCC([C@@H](F)c4ccc(F)cc4F)CC3)c(-c3cnn(C)c3)nc2C1 (single isomer, unassigned) [Compound 659]",IC50,GPR6; procedure of Example 24,< 100 nM
same,IC50,GPR3; procedure of Example 24,100 to 1000 nM
"CC(C)(O)C(C)(O)c1cc2nc(-c3cnn(C(F)F)c3)c(N3CCN(Cc4ccc(F)cc4F)CC3)nc2cn1 (single isomer, unassigned) [Compound 662]",IC50,GPR6; procedure of Example 24,< 100 nM
same,IC50,GPR3; procedure of Example 24,1000 to 30000 nM
"CC(C)(O)C(C)(O)c1cc2nc(-c3cnn(C(F)F)c3)c(N3CCN(Cc4ccc(F)cc4F)CC3)nc2cn1 (single isomer, unassigned) [Compound 663]",IC50,GPR6; procedure of Example 24,< 100 nM
same,IC50,GPR3; procedure of Example 24,1000 to 30000 nM
"CC(C)(O)[C@](C)(O)c1cc2nc(N3CCC(Oc4ccc(F)cc4F)CC3)c(-c3cnn(C4CC4)c3)nc2cn1 (single isomer, unassigned) [Compound 664]",IC50,GPR6; procedure of Example 24,100 to 1000 nM
same,IC50,GPR3; procedure of Example 24,1000 to 30000 nM
"CC(C)(O)[C@@](C)(O)c1cc2nc(N3CCC(Oc4ccc(F)cc4F)CC3)c(-c3cnn(C4CC4)c3)nc2cn1 (single isomer, unassigned) [Compound 665]",IC50,GPR6; procedure of Example 24,100 to 1000 nM
same,IC50,GPR3; procedure of Example 24,1000 to 30000 nM
"CC(C)(O)[C@](C)(O)c1cc2nc(N3CCN(Cc4ccc(F)cc4F)CC3)c(-c3cnn(C4CC4)c3)nc2cn1 (single isomer, unassigned) [Compound 666]",IC50,GPR6; procedure of Example 24,100 to 1000 nM
same,IC50,GPR3; procedure of Example 24,1000 to 30000 nM
"CC(C)(O)[C@@](C)(O)c1cc2nc(N3CCN(Cc4ccc(F)cc4F)CC3)c(-c3cnn(C4CC4)c3)nc2cn1 (single isomer, unassigned) [Compound 667]",IC50,GPR6; procedure of Example 24,100 to 1000 nM
same,IC50,GPR3; procedure of Example 24,1000 to 30000 nM
"CC(C)(O)C(O)c1cc2nc(-c3cnn(C(F)F)c3)c(N3CCN(Cc4ccccc4F)CC3)nc2cn1 (single isomer, unassigned) [Compound 668, 1-{2-[1-(difluoromethyl)-4-pyrazolyl]-3-{4-[(o-fluorophenyl)methyl]-1-piperazinyl}-1,4,6-triaza-7-naphthyl}-2-methyl-1,2-propanediol]",IC50,GPR6; procedure of Example 24,< 100 nM
same,IC50,GPR3; procedure of Example 24,1000 to 30000 nM
"CC(C)(O)[C@](C)(O)c1cc2nc(N3CCN(Cc4ccccc4F)CC3)c(-c3cnn(C(F)F)c3)nc2cn1 (single isomer, unassigned) [Compound 669]",IC50,GPR6; procedure of Example 24,100 to 1000 nM
same,IC50,GPR3; procedure of Example 24,1000 to 30000 nM
"CC(C)(O)[C@@](C)(O)c1cc2nc(N3CCN(Cc4ccccc4F)CC3)c(-c3cnn(C(F)F)c3)nc2cn1 (single isomer, unassigned) [Compound 670]",IC50,GPR6; procedure of Example 24,100 to 1000 nM
same,IC50,GPR3; procedure of Example 24,100 to 1000 nM
"Cn1cc(-c2nc3cnc([C@@](C)(O)C(C)(C)O)cc3nc2N2CCC(Oc3ccc(F)cc3F)CC2)cn1 (single isomer, unassigned) [Compound 672]",IC50,GPR6; procedure of Example 24,100 to 1000 nM
same,IC50,GPR3; procedure of Example 24,1000 to 30000 nM
"Cn1cc(-c2nc3cnc([C@](C)(O)C(C)(C)O)cc3nc2N2CCC(Oc3ccc(F)cc3F)CC2)cn1 (single isomer, unassigned) [Compound 673]",IC50,GPR6; procedure of Example 24,100 to 1000 nM
same,IC50,GPR3; procedure of Example 24,1000 to 30000 nM
"CC(C)(O)[C@](C)(O)c1cc2nc(N3CCN(Cc4ccccc4F)CC3)c(-c3cnn(CF)c3)nc2cn1 (single isomer, unassigned) [Compound 675]",IC50,GPR6; procedure of Example 24,100 to 1000 nM
same,IC50,GPR3; procedure of Example 24,1000 to 30000 nM
"CC(C)(O)[C@@](C)(O)c1cc2nc(N3CCN(Cc4ccccc4F)CC3)c(-c3cnn(CF)c3)nc2cn1 (single isomer, unassigned) [Compound 676]",IC50,GPR6; procedure of Example 24,100 to 1000 nM
same,IC50,GPR3; procedure of Example 24,1000 to 30000 nM
"CC(C)(O)[C@](C)(O)c1cc2nc(N3CCC(Oc4ccc(F)cc4F)CC3)c(-c3cnn(CF)c3)nc2cn1 (single isomer, unassigned) [Compound 677]",IC50,GPR6; procedure of Example 24,100 to 1000 nM
same,IC50,GPR3; procedure of Example 24,1000 to 30000 nM
"CC(C)(O)[C@@](C)(O)c1cc2nc(N3CCC(Oc4ccc(F)cc4F)CC3)c(-c3cnn(CF)c3)nc2cn1 (single isomer, unassigned) [Compound 678]",IC50,GPR6; procedure of Example 24,100 to 1000 nM
same,IC50,GPR3; procedure of Example 24,1000 to 30000 nM
"COC[C@@H](O)c1cc2nc(-c3cnn(C)c3)c(N3CCC(Oc4ccc(F)cc4F)CC3)nc2cn1 (single isomer, unassigned) [Compound 680]",IC50,GPR6; procedure of Example 24,< 100 nM
same,IC50,GPR3; procedure of Example 24,100 to 1000 nM
"COC[C@H](O)c1cc2nc(-c3cnn(C)c3)c(N3CCC(Oc4ccc(F)cc4F)CC3)nc2cn1 (single isomer, unassigned) [Compound 681]",IC50,GPR6; procedure of Example 24,< 100 nM
same,IC50,GPR3; procedure of Example 24,100 to 1000 nM
"CC(C)(O)[C@@](C)(O)c1cc2nc(-c3cnn(C4CC4)c3)c(N3CCN(Cc4ccc(F)cc4F)CC3)nc2cn1 (single isomer, unassigned) [Compound 682]",IC50,GPR6; procedure of Example 24,< 100 nM
same,IC50,GPR3; procedure of Example 24,1000 to 30000 nM
